Data: patent EP4741383A1, “COMPOUND AND USE THEREOF AS ANTI-CANCER DRUG” (Tyligand Bioscience (Shanghai) Limited, priority 2023, dated 2025)
pIC50: −log10 of the molar value.

What was measured:
[1] = target: T1, SHP2 enzyme (catalytic domain, amino acid sequence 224-528) (Homo sapiens, UniProt Q06124); experiment: SHP2 enzyme inhibition assay (DiFMUP substrate, fluorescence); format: biochemical; conditions: for pIC50: SHP2 catalytic domain, DiFMUP substrate, 30 min pre-incubation, read-out: S HP2 I C50; for SHP2 IC50 times lower than control compound 11a-1: relative to 11a-1, IC50 = 0.108 µM
T1 construct: purchased GenScript
T1 sequence (Q06124 224-528): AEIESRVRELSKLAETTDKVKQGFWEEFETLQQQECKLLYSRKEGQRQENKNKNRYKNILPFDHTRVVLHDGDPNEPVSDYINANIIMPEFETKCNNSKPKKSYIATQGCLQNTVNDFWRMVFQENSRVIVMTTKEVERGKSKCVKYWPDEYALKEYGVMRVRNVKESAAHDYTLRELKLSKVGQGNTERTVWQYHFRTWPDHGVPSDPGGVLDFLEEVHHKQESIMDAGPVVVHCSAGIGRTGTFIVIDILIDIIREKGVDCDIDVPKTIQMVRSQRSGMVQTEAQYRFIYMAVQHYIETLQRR
Procedure, shortened: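 SHP2 catalytic domain (aa 224-528) preincubated 30 min at room temperature with compounds (10-point 3-fold series) in HEPES pH 7.2 buffer with NaCl, EDTA, DTT, BSA, Brij35. DiFMUP from 50 µM working solution added, 5 min reaction; fluorescence 340/450 nm; IC50 from nonlinear dose-response fit.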

KYSE520 = experiment: CellTiter-Glo cell proliferation inhibition, KYSE520; format: cell-based, human; conditions: for IC50: Homo sapiens, KYSE-520, KYSE520 cells, 120 hours, CellTiter-Glo
Excerpt: In this study, the CellTiter-Glo® Luminescent Cell Viability Assay kit from Promega was used to evaluate the inhibitory effects of the disclosed compounds on the proliferation of cell lines KYSE520 (a human esophageal squamous cell carcinoma cell line dependent on SHP2 for growth), MeWo (a human malignant melanoma cell line), and MV4-11 (an RTK-mutant human acute monocytic leukemia cell line).
KYSE520 cells (Nanjing Kebaio Biotechnology Co., Ltd., Catalog #CBP60658) were thawed by rapidly shaking the cryovial in a 37 °C water bath to thaw within 1 minute. The thawed cell suspension was mixed homogeneously with RPMI 1640 medium (HyClone, Catalog #SH30027.01) containing 10% FBS (ExCell, Catalog #FND500), centrifuged at 1000 rpm for 5 minutes, and the supernatant was discarded. The cell pellet was resuspended in 5 mL of complete culture medium (RPMI 1640 medium containing 10% FBS) and placed in a cell culture flask with 25 cm^2 of bottom area, then cultured in a cell culture incubator at 37 °C, 95% humidity, and 5% CO2. Cell passaging was performed when the cell confluence reached approximately 80%. During cell passaging, the old culture medium was discarded, the cells were washed once with DPBS (Thermo Fisher, Catalog #14190-144), and 1 mL of trypsin (Thermo Fisher, Catalog #25200072) was added to digest the cells. When the cells dispersed into single cells and detached from the bottom of the culture flask, 3 mL of fresh complete culture medium was added to stop the digestion. After gently pipetting the cell suspension, 1/5 of the cell suspension was retained, 5 mL of fresh complete culture medium was added, and after mixing, the cells were placed in a cell culture flask for further culture. Cell plating was performed when the cell confluence again reached approximately 80%. During cell plating, following the cell passaging method, 1/5 of the cell suspension was retained for continued culture, and the remaining 4/5 of the cell suspension was placed in a 15 mL centrifuge tube. Cell viability was determined using the trypan blue exclusion method to ensure that cell viability was above 90%. A cell suspension with a density of 2.22 × 10^4 cells/mL was prepared using complete culture medium, and 135 µL of the cell suspension was added to a 96-well transparent flat-bottom black-walled cell culture plate (Greiner, Catalog #655090), resulting in a cell density of 3000 viable cells per well. A control group containing only complete culture medium without cells and compounds (i.e., culture medium control) and a control group containing cells but no compound (i.e., cell control) were set up. The cell plates were incubated overnight in a cell culture incubator. First, a 10 mM stock solution of the compound (Example compound and positive control compound 11a-1) in DMSO (Damas-beta, catalog #75927R) was serially diluted 3-fold to the 9th concentration, and a 10th concentration containing only DMSO (without compound) was also prepared as a control. Then, the DMSO solutions containing different concentrations of the compound were diluted 100-fold with complete culture medium, resulting in a 1% DMSO concentration in each solution. Finally, 15 µL of each solution was added to the corresponding wells of the cell culture plate, resulting in a starting compound concentration of 10 µM, with a 3-fold dilution between adjacent concentrations, and a final DMSO concentration of 0.1% in the cell culture plate. The cell plates were then incubated in the cell culture incubator for another 120 hours.
For endpoint detection, CellTiter-Glo reagent (Promega, catalog number #G7573, CellTiter-Glo® Luminescent Cell Viability Assay Kit) was melt and each cell plate was moved to room temperature for equilibration for 30 minutes. 75 µL (KYSE520 cells) or 50 µL (MeWo cells and MV 4-11 cells) of CellTiter-Glo was added to each well of the corresponding cell plate. The plates were shaken on a track-mounted shaker for 2 minutes to fully lyse the cells. […]

pIC50 [1] | SHP2 IC50 times lower than control compound 11a-1 [1] | SMILES | IC50 (KYSE520) [µM] | IC50 against KYSE-520 cells, fold lower than 11a-1 (KYSE520; relative to 11a-1 (1.23 µM)) [fold]
7.18 |  | O=C(Nc1ccc(-c2csc(CO)c2)cc1)C(=O)Nc1ccc(-c2cc3cc(F)c(-c4nnn[nH]4)cc3n2C2CCC2)cc1 [Example 1] | 0.095 | 
7.19 |  | N#CCc1cc(-c2ccc(NC(=O)C(=O)Nc3ccc(-c4cc5cc(F)c(-c6nnn[nH]6)cc5n4C4CCC4)cc3)cc2)cs1 [Example 2] | 0.141 | 
7.54 | 3-4 times | O=C(Nc1ccc(-c2ccsc2)cc1)C(=O)Nc1ccc(-c2cc3cc(F)c(-c4nnn[nH]4)cc3n2C2CCC2)cc1 [Example 4] |  | 
7.14 |  | CC1(n2c(-c3ccc(NC(=O)C(=O)Nc4ccc(-c5cnn(C6COC6)c5)cc4)cc3)cc3cc(F)c(-c4nnn[nH]4)cc32)CC1 [Example 6] | 0.065 | 
7.31 |  | CC1(n2c(-c3ccc(NC(=O)C(=O)Nc4ccc(-c5cnn(C6CCOCC6)c5)cc4)cc3)cc3cc(F)c(-c4nnn[nH]4)cc32)CC1 [Example 7] | 0.071 | 
6.97 |  | Cn1c(-c2cccc(NC(=O)C(=O)Nc3ccc(-c4ccsc4)cc3)c2)c(I)c2cc(C(=O)O)c(O)cc21 [Example 11a-1, reference compound] | 1.23 | 
7.32 |  | O=C(Nc1ccc(-c2cc3cc(F)c(-c4nnn[nH]4)cc3n2C2CCC2)cc1)C(=O)Nc1ccc(N2CCC(CO)C2)cc1 (stereo not shown) [Example 12] | 0.121 | 
7.35 |  | O=C(Nc1ccc(-c2cc3cc(F)c(-c4nnn[nH]4)cc3n2C2CCC2)cc1)C(=O)Nc1ccc(N2CCC(CCO)C2)cc1 (stereo not shown) [Example 14] | 0.113 | 
7.32 |  | CC1(CO)CCN(c2ccc(NC(=O)C(=O)Nc3ccc(-c4cc5cc(F)c(-c6nnn[nH]6)cc5n4C4CCC4)cc3)cc2)C1 (stereo not shown) [Example 16] | 0.151 | 
7.57 | 3-4 times | O=C(Nc1ccc(-c2cc3cc(F)c(-c4nnn[nH]4)cc3n2C2CCC2)cc1)C(=O)Nc1ccc(N2CCC(C3COC3)CC2)cc1 [Example 20] | 0.036 | 34
6.99 |  | O=C(Nc1ccc(-c2cc3cc(F)c(-c4nnn[nH]4)cc3n2C2CCC2)cc1)C(=O)Nc1ccc(N2CCC(CO)CC2)cc1 [Example 23] |  | 
7.23 |  | O=C(Nc1ccc(-c2cc3cc(F)c(-c4nnn[nH]4)cc3n2C2CCC2)cc1)C(=O)Nc1ccc(N2CCC(CCO)CC2)cc1 [Example 25] | 0.056 | 
7.21 |  | CC1(n2c(-c3ccc(NC(=O)C(=O)Nc4ccc(N5CCC(CCO)CC5)cc4)cc3)cc3cc(F)c(-c4nnn[nH]4)cc32)CCC1 [Example 26] | 0.126 | 
7.32 |  | CC(O)C1CCN(c2ccc(NC(=O)C(=O)Nc3ccc(-c4cc5cc(F)c(-c6nnn[nH]6)cc5n4C4CCC4)cc3)cc2)CC1 (stereo not shown) [Example 29] | 0.076 | 
7.39 |  | CC(C)(O)C1CCN(c2ccc(NC(=O)C(=O)Nc3ccc(-c4cc5cc(F)c(-c6nnn[nH]6)cc5n4C4CCC4)cc3)cc2)CC1 [Example 33] | 0.042 | 
7.22 |  | CC1(CO)CCN(c2ccc(NC(=O)C(=O)Nc3ccc(-c4cc5cc(F)c(-c6nnn[nH]6)cc5n4C4CCC4)cc3)cc2)CC1 [Example 40] | 0.168 | 
7.35 |  | O=C(Nc1ccc(-c2cc3cc(F)c(-c4nnn[nH]4)cc3n2C2CCC2)cc1)C(=O)Nc1ccc(N2CC3(CCCOC3)C2)cc1 [Example 55] | 0.108 | 

pIC50 [1] | SHP2 IC50 times lower than control compound 11a-1 [1] | SMILES | IC50 (KYSE520) [µM] | IC50 against KYSE-520 cells, fold lower than 11a-1 (KYSE520; relative to 11a-1 (1.23 µM)) [fold]
7.17 |  | O=C(Nc1ccc(-c2cc3cc(F)c(-c4nnn[nH]4)cc3n2C2CCC2)cc1)C(=O)Nc1ccc(N2CC3(CCOCC3)C2)cc1 [Example 57] | 0.164 | 
7.21 |  | O=C(Nc1ccc(-c2cc3cc(F)c(-c4nnn[nH]4)cc3n2C2CCC2)cc1)C(=O)Nc1ccc(N2CCC3(COC3)C2)cc1 [Example 59] | 0.119 | 
7.39 |  | O=C(Nc1ccc(-c2cc3cc(F)c(-c4nnn[nH]4)cc3n2C2CCC2)cc1)C(=O)Nc1ccc(N2CCC3(CCOC3)C2)cc1 (stereo not shown) [Example 61] | 0.126 | 
7.19 |  | O=C(Nc1ccc(-c2cc3cc(F)c(-c4nnn[nH]4)cc3n2C2CCC2)cc1)C(=O)Nc1ccc(N2CCC3(CCCOC3)C2)cc1 (stereo not shown) [Example 62] | 0.193 | 
7.47 | 3-4 times | O=C(Nc1ccc(-c2cc3cc(F)c(-c4nnn[nH]4)cc3n2C2CCC2)cc1)C(=O)Nc1ccc(N2CCC3(CCOC3)CC2)cc1 [Example 67] | 0.086 | 
7.32 |  | CC1(n2c(-c3ccc(NC(=O)C(=O)Nc4ccc(N5CCC6(CCOC6)CC5)cc4)cc3)cc3cc(F)c(-c4nnn[nH]4)cc32)CCC1 [Example 68] | 0.057 | 
7.34 |  | O=C(Nc1ccc(-c2cc3cc(F)c(-c4nnn[nH]4)cc3n2C2CC2)cc1)C(=O)Nc1ccc(N2CCC3(CCOC3)CC2)cc1 [Example 69] | 0.189 | 
7.30 |  | CC1(n2c(-c3ccc(NC(=O)C(=O)Nc4ccc(N5CCC6(CCOC6)CC5)cc4)cc3)cc3cc(F)c(-c4nnn[nH]4)cc32)CC1 [Example 70] | 0.085 | 
7.19 |  | O=C(Nc1ccc(-c2cc3cc(F)c(-c4nnn[nH]4)cc3n2C2CCC2)cc1)C(=O)Nc1ccc(N2CCC3(CCCOC3)CC2)cc1 [Example 74] | 0.116 | 
7.40 |  | O=C(Nc1ccc(-c2cc3cc(F)c(-c4nnn[nH]4)cc3n2C2CCC2)cc1)C(=O)Nc1ccc(N2CCC3(CCOCC3)CC2)cc1 [Example 76] | 0.096 | 
7.70 | 3-4 times | CC1(n2c(-c3ccc(NC(=O)C(=O)Nc4ccc(N5CCC6(CCOCC6)CC5)cc4)cc3)cc3cc(F)c(-c4nnn[nH]4)cc32)CCC1 [Example 77] | 0.049 | 
7.24 |  | CC1(O)CCC2(CC1)CN(c1ccc(NC(=O)C(=O)Nc3ccc(-c4cc5cc(F)c(-c6nnn[nH]6)cc5n4C4CCC4)cc3)cc1)C2 [Example 83] | 0.163 | 
6.80 |  | O=C(Nc1ccc(-c2cc3cc(F)c(-c4nnn[nH]4)cc3n2C2CCC2)cc1)C(=O)Nc1ccc(N2CCC3(CC(O)C3)C2)cc1 (stereo not shown) [Example 89] | 0.062 | 
7.29 |  | O=C(Nc1ccc(-c2cc3cc(F)c(-c4nnn[nH]4)cc3n2C2CCC2)cc1)C(=O)Nc1ccc(N2CCC3(CCC(O)C3)C2)cc1 (stereo not shown) [Example 92] | 0.13 | 
7.51 | 3-4 times | CC1(O)CC2(CCN(c3ccc(NC(=O)C(=O)Nc4ccc(-c5cc6cc(F)c(-c7nnn[nH]7)cc6n5C5CCC5)cc4)cc3)CC2)C1 [Example 94] | 0.115 | 
7.59 |  | O=C(Nc1ccc(-c2ccsc2)cc1)C(=O)Nc1ccc(-c2cc3cnc(-c4nnn[nH]4)nc3n2C2CCC2)cc1 [Example 131] |  | 

SMILES | pIC50 [1] | SHP2 IC50 times lower than control compound 11a-1 [1] | IC50 (KYSE520) [µM] | IC50 against KYSE-520 cells, fold lower than 11a-1 (KYSE520; relative to 11a-1 (1.23 µM)) [fold]
O=C(Nc1ccc(-c2cc3cc(F)c(-c4nnn[nH]4)cc3n2C2CCC2)cc1)C(=O)Nc1ccc(N2CCOCC2)cc1 [Example 47] | 7.20 |  |  | 
